Consider four compounds from patent US7557089B2, “Use of derivatives of succinate esters for the treatment of dementia” (priority 2002, dated 2009).

Like-named read-outs stand apart in the source and are kept apart here.

The test system of series [1] is memory impairment induced by scopolamine. The series is described as follows: Step-down passive avoidance test, impairment caused by scopolamine in mice. The series is classed as in vivo, Male ICR mice. Conditions: for Number of errors: during 5 min; for Number of errors / Latency: scopolamine 1 mg/kg i.p.; for effect on scopolamine-induced impairment of passive avoidance (step-down latency, number of errors): result in words. The procedure:
Male ICR mice, 24-28 g, were used. The mice were housed for 2 days period of habituation before experiment. Mice were randomized into groups (n=20).
The mice were administered by gavage of physiological saline, or drugs at different doses, respectively in the negative control, scopolamine group, and test drugs groups. Twice daily for 2 days.
At D3, 30 min after administration of test drugs, scopolamine (1 mg/kg i.p) was administered, except for the control group.
30 min later, each mouse was individually placed onto the safety platform in the box of step-down apparatus. When the mouse stepped down and touched the grid floor, it was given an electric shock with a tension of 36V, and jumped back onto the rubber platform. Each animal was trained for 5 min and returned to the home cage.
24 hours after the learning trial, the animal was again placed on the platform and the step-down latency and the number of step-down events (number of errors) during 5 min were recorded.

The next series has as its system KM mice. The series is described as follows: Acute toxicity study in mice. The series is classed as in vivo. The settings on record: 0.5 g/kg i.p. or p.o. From the text: KM mice were used for this experiment. 10 male and 10 female mice were included in each group. CE (5 g/kg) or W6-W9 (0.5 g/kg) were given by oral or by i.p. The animals were observed carefully and their body weight were checked every 3 days within 2 weeks.

Series [2] concerns learning and memory performance impairment caused by permanent occlusion of carotid arteries. Briefly: Water-maze test, permanent occlusion of 2 carotid arteries (2-VO) in mice. It counts as in vivo. Conditions: 2-VO mice, four weeks after surgery, dose 1 mg/kg po daily. From the text:
(§1) Water-maze test: Each mouse was first placed on the stairs, then released into the water from position 1 and allowed 120 sec to find the stairs. The mouse received 2 trials per day for 3 days. The starting location varied from position 1 to position 2 and position 3 for the next 2 day. The distance and the dead end increased every day. In D4, the mouse was put into water from position 3, the time to escape from water to the stairs and the number of entering the dead ends (number of errors) were measured. This method is used to evaluate the spatial performance and learning and memory performance of animal.
(§2) At surgery, under pentobarbital anaesthesia (40 mg/kg i.p.), the common carotid arteries of mice were exposed and occluded with thread permanently and the surrounding skin sutured. Sham-operated controls had their carotids exposed but not occluded. After 1 week, the survival mice with occluded carotids were randomly divided into 3 groups. 2 groups were repeated administered with CE (5 mg/kg, po) or W6 (1 mg/kg, po) daily. Four weeks after surgery, mice were trained and tested in a water maze and step-down apparatus.

For series [3] the test system is unchanged. Briefly: Step-down test, permanent occlusion of 2 carotid arteries (2-VO) in mice. It counts as in vivo. The protocol:
as §2

Series [4] deals with Aβ(1-42)-induced memory impairment. Briefly: Water-maze test, Aβ(1-42)-induced impairment of learning and memory in mice. The series is classed as in vivo. The procedure: (§3) Aβ(1-42) (10 μg/mouse) was administered via ICV injection. The sham group was given same volumn of Ringer's solution. One week later, The mice with injection of Aβ(1-42) were randomly divided into 3 groups, and were administered by oral with saline, CE (5 mg/kg) or W6 (1 mg/kg), respectively. Two weeks later, step-down test and water-maze test were performed for evaluating the capacity of learning and memory of mice.
as §1

Series [5] relates to cycloheximide-induced memory deficit. Briefly: Step-down passive avoidance test, impairment induced by cycloheximide in mice. The settings on record: for Improvement (%): step-down latency; for Improvement (%) / Latency / No. of errors: cycloheximide 120 mg/kg i.p.; for Latency / No. of errors: step-down test; for No. of errors: during 5 min. It counts as in vivo. The protocol:
The randomization and the administration of drugs are as before. The mice were administered with cycloheximide (120 mg/kg i.p), except for the control group. 30 min later, each mouse was individually placed onto the platform of the step-down apparatus, and trained for 5 min. The retention test started 24 hours later, the step-down latency and the number of step-down events (number of errors) during 5 min were recorded.

The subject of series [6] is Aβ(1-42)-induced memory impairment. Briefly: Step-down test, Aβ(1-42)-induced impairment (ICV injection) in mice. The series is classed as in vivo. The protocol: as §3
For series [7], the target named is Acetylcholinesterase (AchE) (Rattus norvegicus, UniProt P37136). The settings on record: for inhibition (%): AchE activity, rat forebrain; for AchE activity: rat forebrain homogenate. The procedure:
The rats were fasting over night and given a single oral dose of drugs. 1 hour later, the rats were decapitated, the forebrains were rapidly removed under ice bath, weighed and homogenized in 0.9% saline using a ultrasonic homogenizer to obtain 10% brain homogenate. The homogenate was centrifuged (6000 rpm) for 20 mins at low temperature, and retained the supernatant. Then the AchE activity was measured with an assay kit.

Where [8] appears, read: step-down test, 2-VO mice, four weeks after surgery, dose 1 mg/kg po daily.
Where [9] appears, read: step-down test, Aβ(1-42) 10 μg/mouse ICV, mice, dose 1 mg/kg oral, two weeks.
Where [10] appears, read: 1 hour after single oral dose 5 mg/kg.
The mark [11] stands for this setting: 1 hour after single oral dose 20 mg/kg.

Chain of Acetylcholinesterase (AchE) (P37136 32-614): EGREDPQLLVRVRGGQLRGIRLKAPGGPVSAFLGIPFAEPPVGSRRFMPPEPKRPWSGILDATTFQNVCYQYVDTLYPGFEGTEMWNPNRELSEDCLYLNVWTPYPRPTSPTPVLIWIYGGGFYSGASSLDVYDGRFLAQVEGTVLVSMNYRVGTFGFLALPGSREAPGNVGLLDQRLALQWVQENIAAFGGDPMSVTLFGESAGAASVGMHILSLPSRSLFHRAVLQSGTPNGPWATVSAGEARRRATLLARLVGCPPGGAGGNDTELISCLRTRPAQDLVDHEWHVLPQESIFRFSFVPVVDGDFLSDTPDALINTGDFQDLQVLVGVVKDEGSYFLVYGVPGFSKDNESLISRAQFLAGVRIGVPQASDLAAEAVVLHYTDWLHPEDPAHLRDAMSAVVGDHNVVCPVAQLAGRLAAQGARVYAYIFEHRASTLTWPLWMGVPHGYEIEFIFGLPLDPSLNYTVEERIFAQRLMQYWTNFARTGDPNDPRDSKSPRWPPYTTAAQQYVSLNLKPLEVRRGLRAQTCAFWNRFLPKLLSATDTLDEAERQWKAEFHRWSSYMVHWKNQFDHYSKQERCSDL

In the case of `CC(C)CC(CC(=O)OCc1ccc(O[C@@H]2O[C@H](CO)[C@@H](O)[C@H](O)[C@H]2O)cc1)(O[C@@H]1O[C@H](CO)[C@@H](O)[C@H](O)[C@H]1O)C(=O)OCc1ccc(O[C@@H]2O[C@H](CO)[C@@H](O)[C@H](O)[C@H]2O)cc1` (stereo partly drawn) [Compound W8, 1,4-bis(β-D-glucopyranosyloxybenzyl)-2-β-D-glucopyranosyl-2-isobutylmalate], in series [1] (dose 0.25 mg/kg by gavage), the Number of errors was found to be 0.7 ± 0.9 and the “Latency” value is listed as 197 ± 144 s. Besides, in series [1] (dose 1 mg/kg by gavage), the Number of errors is 0.3 ± 0.5 and the “Latency” value is on record as 218 ± 127 s. Further, the “effect on scopolamine-induced impairment of passive avoidance (step-down latency, number of errors)” value (“effect … (step-down latency, number of errors)” for short) in series [1] is reported as “attenuated the scopolamine-induced impairment of passive avoidance behaviors”. In the series with KM mice, the “acute toxicity (animal death and body weight)” value (shortened to “acute toxicity”) is recorded as “The result is the same”.
As for `CC(C)CC(O)(C(=O)OCc1ccc(O[C@@H]2O[C@H](CO)[C@@H](O)[C@H](O)[C@H]2O)cc1)C(O)C(=O)OCc1ccc(O[C@@H]2O[C@H](CO)[C@@H](O)[C@H](O)[C@H]2O)cc1` (stereo partly drawn) [Compound W7, 1,4-bis(β-D-glucopyranosyloxybenzyl)-2-isobutyltartrate], in series [1] (dose 0.25 mg/kg by gavage), the Number of errors is 0.4 ± 0.7 and the “Latency” value is given as 205 ± 142 s. In series [1] (dose 1 mg/kg by gavage), the Number of errors is reported as 0.2 ± 0.4 and the “Latency” value amounted to 237 ± 125 s. Besides, the “effect … (step-down latency, number of errors)” value in series [1] was “attenuated the scopolamine-induced impairment of passive avoidance behaviors”. Also, in the series with KM mice, the “acute toxicity” value is on record as “The result is the same”.
Regarding `CC(C)CC(O)(CC(=O)OCc1ccc(O[C@@H]2O[C@H](CO)[C@@H](O)[C@H](O)[C@H]2O)cc1)C(=O)OCc1ccc(O[C@@H]2O[C@H](CO)[C@@H](O)[C@H](O)[C@H]2O)cc1` (stereo partly drawn) [Compound W9, 1,4-bis(β-D-glucopyranosyloxybenzyl)-2-hydroxy-2-isobutylmalate], in series [1] (dose 0.25 mg/kg by gavage), the Number of errors is on record as 0.8 ± 0.7 and the “Latency” value is reported as 140 ± 129 s. Moreover, in series [1] (dose 1 mg/kg by gavage), the Number of errors came to 0.4 ± 0.5 and the “Latency” value was found to be 210 ± 134 s. Further, in series [1], the “effect … (step-down latency, number of errors)” value was “attenuated the scopolamine-induced impairment of passive avoidance behaviors”. For the same compound, the “acute toxicity” value in the series with KM mice is given as “The result is the same”.
Consider `CC(C)CC(O[C@@H]1O[C@H](CO)[C@@H](O)[C@H](O)[C@H]1O)(C(=O)OCc1ccc(O[C@@H]2O[C@H](CO)[C@@H](O)[C@H](O)[C@H]2O)cc1)C(O)C(=O)OCc1ccc(O[C@@H]2O[C@H](CO)[C@@H](O)[C@H](O)[C@H]2O)cc1` (stereo partly drawn) [Compound W6, 1,4-bis(β-D-glucopyranosyloxybenzyl)-2-β-D-glucopyranosyl-2-isobutyltartrate], for which the “Escape Latency” value in series [2] is reported as 33 ± 19 s; in series [4] (water-maze test, Aβ(1-42) 10 μg/mouse ICV, mice, dose 1 mg/kg oral, two weeks), 46 ± 11 s. In addition, the Number of errors in series [2] was determined as 5.4 ± 1.4; in series [1] (dose 0.03 mg/kg by gavage), 0.2 ± 0.1; in series [1] (dose 0.3 mg/kg by gavage), 0.4 ± 0.2; in series [1] (dose 3 mg/kg by gavage) it was 0.3 ± 0.1; in series [3] (setting [8]) it was 0.2 ± 0.1; in series [4] (water-maze test (entering dead ends), Aβ(1-42) 10 μg/mouse ICV, mice, dose 1 mg/kg oral, two weeks), 3.1 ± 0.8. Further, the Number of errors in series [6] (setting [9]) stood at 0.9 ± 0.2. For the same compound, the “effect … (step-down latency, number of errors)” value in series [1] was “attenuated the scopolamine-induced impairment of passive avoidance behaviors”. The “Latency” value in series [1] (dose 0.03 mg/kg by gavage) is 283 ± 38 s; in series [1] (dose 0.3 mg/kg by gavage) it was 259 ± 34 s; in series [1] (dose 3 mg/kg by gavage) it was 258 ± 17 s; in series [3] (setting [8]) it was 253 ± 31 s; in series [5] (dose 1.25 mg/kg), 211 ± 31 s; in series [5] (dose 2.5 mg/kg) it was 223 ± 24 s. In addition, the “Latency” value in series [5] (dose 5 mg/kg) was found to be 182 ± 33 s; in series [5] (dose 10 mg/kg) it was 216 ± 29 s; in series [6] (setting [9]) it was 110 ± 37 s. Moreover, in series [3] (mice and rats, long term treatment, step-down testing and water-maze testing, result in words), the “effect on deficits of learning and memory caused by cerebral hypoperfusion” value is on record as “significantly alleviated these changes”. Besides, the “acute toxicity” value in the series on KM mice was “The result is the same”. For the same compound, the “effect on Aβ(1-42)-induced decrease in spatial working memory” value in series [4] (treatment for 2 weeks, water maze, result in words) is on record as “significantly improved”. Also, the “effect on cycloheximide-induced reduction of latency and number of errors” value in series [5] (passive avoidance, result in words) is recorded as “significantly reversed the cycloheximide-induced reduction of step-down latency”. Further, the “Improvement (%)” value in series [5] (dose 1.25 mg/kg) worked out at 57%; in series [5] (dose 2.5 mg/kg) it was 65%; in series [5] (dose 5 mg/kg), 38%; in series [5] (dose 10 mg/kg) it was 61%. The No. of errors in series [5] (dose 1.25 mg/kg) is on record as 0.6 ± 1.2; in series [5] (dose 2.5 mg/kg) it was 0.7 ± 0.9; in series [5] (dose 5 mg/kg), 0.4 ± 0.5; in series [5] (dose 10 mg/kg), 0.3 ± 0.5. For the same compound, in series [6] (mice or rats, treatment for 2 weeks, result in words), the “effect on Aβ(1-42)-induced impairment in passive avoidance performance” value was “significantly blocked”. Besides, the “inhibition (%)” value in series [7] (setting [10]) and in series [7] (setting [11]) was 0% throughout. Besides, the AchE activity in series [7] (setting [10]) is 0.80 ± 0.16; in series [7] (setting [11]) it was 0.72 ± 0.16. In addition, the “inhibition on activity of AchE” value in series [7] (single dose to rats) is “no inhibition”.
